Laboratory results published in PubChem BioAssay AID248 (DTP/NCI, 2004).
Where “and” joins values, the source holds several entries; their conditions need not be identical. Equal entries are not always repeated. Toxic doses and inconclusive results are not listed.

Tested on: L1210 leukemia ip in BDF1 mice, survival T/C
Assay: NCI In Vivo Anticancer Drug Screen. Data for tumor model L1210 Leukemia (intraperitoneal) in B6D2F1 (BDF1) mice
Details: endpoint: mean survival time, higher = longer survival
Method in brief: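 Read-out is survival time, reported as the treated-group measurement over the vehicle-control measurement.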

[1] = dose: 100.0 mg/kg/injection, schedule: Q01DX009 (ip), vehicle: Klucel (hydroxypropylcellulose) (HPC)
[2] = dose: 200.0 mg/kg/injection, schedule: Q01DX009 (ip), vehicle: Klucel (hydroxypropylcellulose) (HPC)
[3] = dose: 400.0 mg/kg/injection, schedule: Q01DX009 (ip), vehicle: Klucel (hydroxypropylcellulose) (HPC)
[4] = dose: 100.0 mg/kg/injection, schedule: Q04DX002 (ip), vehicle: Klucel (hydroxypropylcellulose) (HPC)
[5] = dose: 100.0 mg/kg/injection, schedule: Q04DX003 (ip), vehicle: Klucel (hydroxypropylcellulose) (HPC)
[6] = dose: 200.0 mg/kg/injection, schedule: Q04DX003 (ip), vehicle: Klucel (hydroxypropylcellulose) (HPC)
[7] = dose: 400.0 mg/kg/injection, schedule: Q04DX003 (ip), vehicle: Klucel (hydroxypropylcellulose) (HPC)
[8] = dose: 50.0 mg/kg/injection, schedule: Q01DX001 (ip), vehicle: carboxymethylcellulose (CMC)
[9] = dose: 100.0 mg/kg/injection, schedule: Q01DX001 (ip), vehicle: carboxymethylcellulose (CMC)
[10] = dose: 200.0 mg/kg/injection, schedule: Q01DX001 (ip), vehicle: carboxymethylcellulose (CMC)
[11] = dose: 400.0 mg/kg/injection, schedule: Q01DX001 (ip), vehicle: carboxymethylcellulose (CMC)

Which T/C (dose: 15.0 mg/kg/injection, schedule: Q01DX Z (oral), vehicle: saline) does the source give for `N/C(=N/N=C/c1ccccc1)N/N=C\c1ccccc1` here?
The T/C was 95 % of control.

And the T/C (dose: 30.0 mg/kg/injection, schedule: Q01DX Z (oral), vehicle: saline)?
Its T/C is 95 % of control.

And the T/C (dose: 60.0 mg/kg/injection, schedule: Q01DX Z (oral), vehicle: saline)?
Its T/C is 91 % of control.

And the T/C (dose: 120.0 mg/kg/injection, schedule: Q01DX Z (oral), vehicle: saline)?
The T/C was 95 % of control.

How did the T/C (dose: 25.0 mg/kg/injection, schedule: Q04DX002 (ip), vehicle: saline) turn out when `CCN(CC)CC(=O)NC(CCN(C)C)c1cccc2ccccc12` (stereo not drawn) was run?
The T/C was 103 % of control.

What about the T/C (dose: 50.0 mg/kg/injection, schedule: Q04DX002 (ip), vehicle: saline) of the same compound?
The T/C was 103 % of control.

What about the T/C (dose: 100.0 mg/kg/injection, schedule: Q04DX002 (ip), vehicle: saline) of the same compound?
Its T/C is 98 % of control.

With `O=S1(=O)C=C(Br)CC1` as the compound, how does the T/C (dose: 75.0 mg/kg/injection, schedule: Q01DX001 (ip), vehicle: saline with Tween-80) read?
The T/C was 97 % of control.

What about the T/C (dose: 150.0 mg/kg/injection, schedule: Q01DX001 (ip), vehicle: saline with Tween-80) of the same compound?
The T/C was 97 % of control.

What about the T/C (dose: 300.0 mg/kg/injection, schedule: Q01DX001 (ip), vehicle: saline with Tween-80) of the same compound?
Its T/C is 95 % of control.

Which T/C [1] does the source give for `C#CC1(OC(N)=O)CCCCC1` here?
The T/C was 98 % of control.

What about the T/C [2] of the same compound?
Its T/C is 91 % of control.

And the T/C [3]?
Its T/C is 98 % of control.

With `Cc1ccc(NC(=O)OCC2CC3C=CC2C3)cc1` (stereo not drawn) as the compound, how does the T/C [1] read?
The T/C was 98 % of control.

What about the T/C [2] of the same compound?
Its T/C is 102 % of control.

And the T/C [3]?
The T/C was 100 % of control.

Which T/C (dose: 25.0 mg/kg/injection, schedule: Q04DX002 (ip), vehicle: Klucel (hydroxypropylcellulose) (HPC)) does the source give for `NCc1cccc(NC(=O)COc2cccc(Cl)c2)c1` here?
The T/C was 100 % of control.

What about the T/C (dose: 50.0 mg/kg/injection, schedule: Q04DX002 (ip), vehicle: Klucel (hydroxypropylcellulose) (HPC)) of the same compound?
The T/C was 111 % of control.

And the T/C [4]?
The T/C was 100 % of control.

Which results are given for `CC(C)NCC(O)c1ccc(O)c(O)c1` (stereo not drawn)?
T/C (dose: 50.0 mg/kg/injection, schedule: Q01DX009 (ip), vehicle: saline): 103 % of control; T/C (dose: 75.0 mg/kg/injection, schedule: Q01DX001 (ip), vehicle: saline): 105 % of control; T/C [1]: 108 % of control and 111 % of control; T/C (dose: 100.0 mg/kg/injection, schedule: Q01DX009 (ip), vehicle: saline): 110 % of control; T/C [5]: 104 % of control; T/C (dose: 150.0 mg/kg/injection, schedule: Q01DX001 (ip), vehicle: saline): 100 % of control; T/C [2]: 113 % of control; T/C (dose: 200.0 mg/kg/injection, schedule: Q01DX009 (ip), vehicle: saline): 114 % of control; T/C [6]: 100 % of control; T/C (dose: 300.0 mg/kg/injection, schedule: Q01DX001 (ip), vehicle: saline): 123 % of control; T/C [7]: 100 % of control

For `CN(C)c1ccc(CNc2cccc(Cl)c2Cl)cc1`, which T/C [5] is on record?
The T/C was 94 % of control.

What about the T/C [6] of the same compound?
The T/C was 96 % of control.

And the T/C [7]?
The T/C was 97 % of control.

How did the T/C (dose: 75.0 mg/kg/injection, schedule: Q01DX009 (ip), vehicle: saline sonified) turn out when `CCOC(=O)NC(=O)NC(=O)OCC` was run?
The T/C was 92 % of control.

What about the T/C (dose: 100.0 mg/kg/injection, schedule: Q04DX003 (ip), vehicle: saline) of the same compound?
The T/C was 107 % of control.

What about the T/C (dose: 150.0 mg/kg/injection, schedule: Q01DX009 (ip), vehicle: saline sonified) of the same compound?
The T/C was 94 % of control.

And the T/C (dose: 200.0 mg/kg/injection, schedule: Q04DX003 (ip), vehicle: saline)?
The T/C was 119 % of control.

What about the T/C (dose: 300.0 mg/kg/injection, schedule: Q01DX009 (ip), vehicle: saline sonified) of the same compound?
Its T/C is 96 % of control.

And the T/C (dose: 400.0 mg/kg/injection, schedule: Q04DX003 (ip), vehicle: saline)?
Its T/C is 104 % of control.

Which results are given for `C(=C\c1ccccc1)/C=N/Nc1nnc(N/N=C/C=C/c2ccccc2)c2ccccc12`?
T/C [8]: 102 % of control; T/C [9]: 94 % of control; T/C [10]: 102 % of control; T/C [11]: 90 % of control

Which T/C [5] does the source give for `CCOC(=O)CCC(NC(=O)OCc1ccccc1)C(=O)O` (stereo not drawn) here?
The T/C was 91 % of control.

And the T/C [6]?
The T/C was 89 % of control.

What does the source list for `CC(C)CC(C)OB(OC(C)CC(C)C)OC(C)CC(C)C` (stereo not drawn)?
T/C [8]: 102 % of control; T/C [9]: 111 % of control; T/C [10]: 102 % of control; T/C [11]: 96 % of control

What does the source list for `COc1ccc(OC)c(CC(CC(=O)O)(C(=O)O)C(=O)O)c1`?
T/C [5]: 91 % of control; T/C [6]: 96 % of control; T/C [7]: 96 % of control

Which T/C [4] does the source give for `CCCCCCCCCC(=O)Nc1cccc(C)c1C` here?
Its T/C is 105 % of control.

What about the T/C (dose: 200.0 mg/kg/injection, schedule: Q04DX002 (ip), vehicle: Klucel (hydroxypropylcellulose) (HPC)) of the same compound?
The T/C was 94 % of control.

What about the T/C (dose: 400.0 mg/kg/injection, schedule: Q04DX002 (ip), vehicle: Klucel (hydroxypropylcellulose) (HPC)) of the same compound?
The T/C was 94 % of control.

For `NCCSc1ccc(Br)cc1`, which T/C (dose: 75.0 mg/kg/injection, schedule: Q01DX001 (ip), vehicle: other) is on record?
The T/C was 100 % of control.

And the T/C (dose: 150.0 mg/kg/injection, schedule: Q01DX001 (ip), vehicle: other)?
The T/C was 102 % of control.

Which T/C (dose: 1.0 mg/kg/injection, schedule: Q03HX008 (ip), vehicle: Klucel (hydroxypropylcellulose) (HPC)) does the source give for `CCCCN(C)N=Nc1c(C(N)=O)n[nH]c1C` here?
Its T/C is 93 % of control.

What about the T/C (dose: 2.0 mg/kg/injection, schedule: Q03HX008 (ip), vehicle: Klucel (hydroxypropylcellulose) (HPC)) of the same compound?
The T/C was 99 % of control.

What about the T/C (dose: 4.0 mg/kg/injection, schedule: Q03HX008 (ip), vehicle: Klucel (hydroxypropylcellulose) (HPC)) of the same compound?
Its T/C is 100 % of control.

What about the T/C (dose: 4.0 mg/kg/injection, schedule: Q03HX016 (ip), vehicle: Klucel (hydroxypropylcellulose) (HPC)) of the same compound?
The T/C was 99 % of control.

What about the T/C (dose: 4.0 mg/kg/injection, schedule: Q03HX024 (ip), vehicle: Klucel (hydroxypropylcellulose) (HPC)) of the same compound?
Its T/C is 107 % of control.

And the T/C (dose: 8.0 mg/kg/injection, schedule: Q01DX009 (ip), vehicle: Klucel (hydroxypropylcellulose) (HPC))?
The T/C was 102 % of control.

And the T/C (dose: 8.0 mg/kg/injection, schedule: Q03HX008 (ip), vehicle: Klucel (hydroxypropylcellulose) (HPC))?
The T/C was 102 % of control.

And the T/C (dose: 8.0 mg/kg/injection, schedule: Q03HX016 (ip), vehicle: Klucel (hydroxypropylcellulose) (HPC))?
Its T/C is 100 % of control.

What about the T/C (dose: 8.0 mg/kg/injection, schedule: Q03HX024 (ip), vehicle: Klucel (hydroxypropylcellulose) (HPC)) of the same compound?
Its T/C is 108 % of control.

What about the T/C (dose: 8.8 mg/kg/injection, schedule: Q01DX007 (ip), vehicle: Klucel (hydroxypropylcellulose) (HPC)) of the same compound?
Its T/C is 114 % of control.

What about the T/C (dose: 10.0 mg/kg/injection, schedule: Q01DX009 (ip), vehicle: Klucel (hydroxypropylcellulose) (HPC)) of the same compound?
Its T/C is 109 % of control.

What about the T/C (dose: 13.2 mg/kg/injection, schedule: Q01DX007 (ip), vehicle: Klucel (hydroxypropylcellulose) (HPC)) of the same compound?
The T/C was 120 % of control.

What about the T/C (dose: 15.0 mg/kg/injection, schedule: Q01DX009 (ip), vehicle: Klucel (hydroxypropylcellulose) (HPC)) of the same compound?
Its T/C is 111 % of control.

And the T/C (dose: 16.0 mg/kg/injection, schedule: Q01DX009 (ip), vehicle: Klucel (hydroxypropylcellulose) (HPC))?
Its T/C is 114 % of control.

And the T/C (dose: 16.0 mg/kg/injection, schedule: Q03HX016 (ip), vehicle: Klucel (hydroxypropylcellulose) (HPC))?
The T/C was 119 % of control.

And the T/C (dose: 32.0 mg/kg/injection, schedule: Q01DX001 (ip), vehicle: Klucel (hydroxypropylcellulose) (HPC))?
Its T/C is 101 % of control.

And the T/C (dose: 32.0 mg/kg/injection, schedule: Q03HX024 (ip), vehicle: Klucel (hydroxypropylcellulose) (HPC))?
The T/C was 105 % of control.

What about the T/C (dose: 32.0 mg/kg/injection, schedule: Q04DX003 (ip), vehicle: Klucel (hydroxypropylcellulose) (HPC)) of the same compound?
The T/C was 105 % of control.

And the T/C (dose: 32.0 mg/kg/injection, schedule: Q08DX002 (ip), vehicle: Klucel (hydroxypropylcellulose) (HPC))?
The T/C was 105 % of control.

And the T/C (dose: 45.0 mg/kg/injection, schedule: Q01DX009 (ip), vehicle: Klucel (hydroxypropylcellulose) (HPC))?
The T/C was 150 % of control.

What about the T/C (dose: 64.0 mg/kg/injection, schedule: Q01DX001 (ip), vehicle: Klucel (hydroxypropylcellulose) (HPC)) of the same compound?
The T/C was 105 % of control.

And the T/C (dose: 64.0 mg/kg/injection, schedule: Q04DX003 (ip), vehicle: Klucel (hydroxypropylcellulose) (HPC))?
Its T/C is 119 % of control.

And the T/C (dose: 64.0 mg/kg/injection, schedule: Q08DX002 (ip), vehicle: Klucel (hydroxypropylcellulose) (HPC))?
The T/C was 115 % of control.

And the T/C (dose: 67.5 mg/kg/injection, schedule: Q01DX009 (ip), vehicle: Klucel (hydroxypropylcellulose) (HPC))?
The T/C was 113 % of control.

What about the T/C (dose: 128.0 mg/kg/injection, schedule: Q01DX001 (ip), vehicle: Klucel (hydroxypropylcellulose) (HPC)) of the same compound?
The T/C was 121 % of control.

And the T/C (dose: 128.0 mg/kg/injection, schedule: Q08DX002 (ip), vehicle: Klucel (hydroxypropylcellulose) (HPC))?
Its T/C is 124 % of control.

And the T/C (dose: 177.0 mg/kg/injection, schedule: Q01DX001 (ip), vehicle: carboxymethylcellulose (CMC))?
The T/C was 124 % of control.

Which T/C [8] does the source give for `O=C1C(=O)c2ccccc2C(O)=C1c1ccc2ccccc2c1` here?
The T/C was 96 % of control.

What about the T/C [9] of the same compound?
The T/C was 96 % of control.

What about the T/C [10] of the same compound?
The T/C was 91 % of control.

What about the T/C [11] of the same compound?
Its T/C is 96 % of control.
